The text below walks through data of PMC4770715, “LIM kinase inhibitors disrupt mitotic microtubule organization and impair tumor cell proliferation” (Oncotarget, 2015).

Assay in all cases: biochemical
Holding throughout (design): KINOMEscan active-site competition binding, percent of control (100 = no competition)
Holding throughout (conditions): competition binding, percent control

For assay [1], the target named is T1, ABL1(F317L)-phosphorylated (Homo sapiens, UniProt P00519, F317L).
T1 construct: phosphorylated

Assay [2] has as its target CDK2 (Homo sapiens, UniProt P24941).
For assay [3], the target named is CSNK1A1L (Homo sapiens, UniProt Q8N752).
Assay [4] addresses DDR2 (Homo sapiens, UniProt Q16832).
The target of assay [5] is T2, ERK1 (Homo sapiens, UniProt P27361).
T2 construct: gene MAPK3

The target in assay [6] is T3, IKK-beta (Homo sapiens, UniProt O14920).
T3 construct: gene IKBKB

The target of assay [7] is IRAK4 (Homo sapiens, UniProt Q9NWZ3).
The target of assay [8] is T4, LOK (Homo sapiens, UniProt O94804).
T4 construct: gene STK10

For assay [9], the target named is LTK (Homo sapiens, UniProt P29376).
Assay [10] addresses LYN (Homo sapiens, UniProt P07948).
The target of assay [11] is MAP3K3 (Homo sapiens, UniProt Q99759).
In assay [12] the target is MAST1 (Homo sapiens, UniProt Q9Y2H9).
Assay [13] has as its target T5, MEK4 (Homo sapiens, UniProt P45985).
T5 construct: gene MAP2K4

Assay [14] addresses T6, MRCKB (Homo sapiens, UniProt Q9Y5S2).
T6 construct: gene CDC42BPB

Assay [15] concerns the target PHKG2 (Homo sapiens, UniProt P15735).
Assay [16] deals with PRKCD (Homo sapiens, UniProt Q05655).
In assay [17] the target is PRKD3 (Homo sapiens, UniProt O94806).
Assay [18] deals with T7, RPS6KA5(Kin.Dom.1-N-terminal) (Homo sapiens, UniProt O75582).
T7 construct: Kin.Dom.1-N-terminal

The target of assay [19] is T8, RSK2(Kin.Dom.1-N-terminal) (Homo sapiens, UniProt P51812).
T8 construct: gene RPS6KA3; Kin.Dom.1-N-terminal

Assay [20] has as its target STK33 (Homo sapiens, UniProt Q9BYT3).
The target of assay [21] is SYK (Homo sapiens, UniProt P43405).
For assay [22], the target named is TGFBR1 (Homo sapiens, UniProt P36897).
The target of assay [23] is T9, YES (Homo sapiens, UniProt P07947).
T9 construct: gene YES1
T9 sequence (P07947 whole entry): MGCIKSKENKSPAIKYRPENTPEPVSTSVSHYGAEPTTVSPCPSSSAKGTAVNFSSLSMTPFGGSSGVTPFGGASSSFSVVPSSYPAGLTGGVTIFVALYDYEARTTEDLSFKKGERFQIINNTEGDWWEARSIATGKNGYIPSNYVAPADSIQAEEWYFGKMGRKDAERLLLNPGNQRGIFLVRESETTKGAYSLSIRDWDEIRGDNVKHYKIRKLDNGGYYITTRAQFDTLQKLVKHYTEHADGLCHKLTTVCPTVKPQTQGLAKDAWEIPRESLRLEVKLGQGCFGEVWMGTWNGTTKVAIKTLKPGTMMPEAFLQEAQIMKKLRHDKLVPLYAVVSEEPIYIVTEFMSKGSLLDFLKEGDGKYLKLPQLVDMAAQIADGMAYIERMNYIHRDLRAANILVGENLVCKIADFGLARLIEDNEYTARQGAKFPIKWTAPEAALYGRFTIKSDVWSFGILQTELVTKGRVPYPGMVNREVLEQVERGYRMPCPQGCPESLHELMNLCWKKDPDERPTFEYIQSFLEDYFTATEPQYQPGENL

PRKCD, sequence (Q05655 whole entry): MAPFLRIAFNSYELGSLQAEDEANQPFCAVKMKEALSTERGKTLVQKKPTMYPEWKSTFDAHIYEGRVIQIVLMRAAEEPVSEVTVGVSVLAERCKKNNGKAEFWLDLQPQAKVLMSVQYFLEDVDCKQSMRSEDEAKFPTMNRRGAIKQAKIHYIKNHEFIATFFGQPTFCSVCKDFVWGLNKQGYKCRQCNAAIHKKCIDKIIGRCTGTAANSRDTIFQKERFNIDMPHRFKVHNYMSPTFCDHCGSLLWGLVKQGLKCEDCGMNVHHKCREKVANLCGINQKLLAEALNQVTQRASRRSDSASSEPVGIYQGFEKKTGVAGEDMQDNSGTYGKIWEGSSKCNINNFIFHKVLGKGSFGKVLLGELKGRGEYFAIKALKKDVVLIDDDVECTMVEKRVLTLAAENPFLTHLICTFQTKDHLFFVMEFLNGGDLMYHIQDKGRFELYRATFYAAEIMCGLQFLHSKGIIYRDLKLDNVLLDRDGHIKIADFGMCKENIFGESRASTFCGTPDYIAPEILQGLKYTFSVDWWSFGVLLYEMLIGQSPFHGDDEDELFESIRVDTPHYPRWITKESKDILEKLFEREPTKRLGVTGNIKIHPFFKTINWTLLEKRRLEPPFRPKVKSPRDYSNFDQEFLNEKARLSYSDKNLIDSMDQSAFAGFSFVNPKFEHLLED
IRAK4, sequence (Q9NWZ3 whole entry): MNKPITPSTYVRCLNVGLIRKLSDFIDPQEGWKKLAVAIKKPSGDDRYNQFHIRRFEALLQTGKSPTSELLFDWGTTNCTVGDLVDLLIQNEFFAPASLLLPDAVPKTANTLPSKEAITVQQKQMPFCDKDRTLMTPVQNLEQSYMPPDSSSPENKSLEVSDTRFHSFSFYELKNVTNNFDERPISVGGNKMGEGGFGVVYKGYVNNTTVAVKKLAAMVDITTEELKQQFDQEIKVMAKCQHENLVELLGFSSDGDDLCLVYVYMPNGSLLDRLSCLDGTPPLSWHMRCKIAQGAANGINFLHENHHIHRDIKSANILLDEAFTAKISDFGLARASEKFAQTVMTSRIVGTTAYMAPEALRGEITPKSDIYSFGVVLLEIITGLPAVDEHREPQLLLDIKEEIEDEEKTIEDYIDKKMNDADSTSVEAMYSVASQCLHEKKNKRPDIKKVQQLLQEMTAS
CSNK1A1L, sequence (Q8N752 whole entry): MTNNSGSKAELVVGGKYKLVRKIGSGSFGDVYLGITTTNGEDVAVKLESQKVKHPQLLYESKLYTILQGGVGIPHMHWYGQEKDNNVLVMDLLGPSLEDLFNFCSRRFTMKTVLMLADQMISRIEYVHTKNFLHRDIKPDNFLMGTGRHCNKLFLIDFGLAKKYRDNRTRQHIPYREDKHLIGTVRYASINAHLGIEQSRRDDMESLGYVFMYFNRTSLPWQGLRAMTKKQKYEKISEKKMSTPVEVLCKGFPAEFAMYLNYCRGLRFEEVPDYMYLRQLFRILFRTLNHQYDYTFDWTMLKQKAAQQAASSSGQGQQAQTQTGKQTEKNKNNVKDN
T3 sequence (O14920 whole entry): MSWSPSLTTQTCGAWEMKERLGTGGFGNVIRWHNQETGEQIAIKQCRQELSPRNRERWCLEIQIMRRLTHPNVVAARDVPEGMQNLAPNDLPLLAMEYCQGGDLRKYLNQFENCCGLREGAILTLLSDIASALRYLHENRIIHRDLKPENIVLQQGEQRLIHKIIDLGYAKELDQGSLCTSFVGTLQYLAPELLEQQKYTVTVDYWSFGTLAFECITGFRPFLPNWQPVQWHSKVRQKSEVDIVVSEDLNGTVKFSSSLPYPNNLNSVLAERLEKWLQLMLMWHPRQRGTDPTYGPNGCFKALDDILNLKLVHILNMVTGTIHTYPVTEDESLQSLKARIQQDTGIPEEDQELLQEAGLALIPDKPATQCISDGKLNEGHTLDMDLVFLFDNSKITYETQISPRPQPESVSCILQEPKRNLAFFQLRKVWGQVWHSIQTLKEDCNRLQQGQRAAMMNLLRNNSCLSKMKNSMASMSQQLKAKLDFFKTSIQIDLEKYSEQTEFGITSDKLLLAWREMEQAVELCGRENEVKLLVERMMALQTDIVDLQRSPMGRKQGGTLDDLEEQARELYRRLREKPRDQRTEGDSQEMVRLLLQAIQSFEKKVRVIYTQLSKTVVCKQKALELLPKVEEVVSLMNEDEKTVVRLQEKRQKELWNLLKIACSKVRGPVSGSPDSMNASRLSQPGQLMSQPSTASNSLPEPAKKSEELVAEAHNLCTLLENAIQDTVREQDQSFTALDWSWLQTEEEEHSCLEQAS
T2 sequence (P27361 whole entry): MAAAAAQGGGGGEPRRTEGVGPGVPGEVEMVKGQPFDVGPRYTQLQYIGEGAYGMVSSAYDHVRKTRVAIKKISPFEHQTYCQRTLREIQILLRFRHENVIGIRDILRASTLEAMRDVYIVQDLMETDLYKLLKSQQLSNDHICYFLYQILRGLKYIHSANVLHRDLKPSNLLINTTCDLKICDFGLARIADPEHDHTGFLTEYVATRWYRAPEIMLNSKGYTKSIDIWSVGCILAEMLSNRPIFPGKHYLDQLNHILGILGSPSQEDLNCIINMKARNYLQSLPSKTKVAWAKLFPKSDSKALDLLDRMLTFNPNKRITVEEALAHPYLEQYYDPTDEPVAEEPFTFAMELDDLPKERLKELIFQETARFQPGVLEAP
T5 sequence (P45985 whole entry): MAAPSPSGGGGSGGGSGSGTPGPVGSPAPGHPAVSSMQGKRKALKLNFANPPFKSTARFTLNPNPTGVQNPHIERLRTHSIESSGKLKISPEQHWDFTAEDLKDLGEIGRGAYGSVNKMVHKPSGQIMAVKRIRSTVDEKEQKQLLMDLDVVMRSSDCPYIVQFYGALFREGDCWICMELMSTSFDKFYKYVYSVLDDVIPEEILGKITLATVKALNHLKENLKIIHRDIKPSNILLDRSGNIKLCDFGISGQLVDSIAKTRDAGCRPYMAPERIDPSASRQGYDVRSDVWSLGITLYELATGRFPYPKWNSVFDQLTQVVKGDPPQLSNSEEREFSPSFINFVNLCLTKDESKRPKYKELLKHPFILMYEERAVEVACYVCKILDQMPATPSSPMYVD
TGFBR1, sequence (P36897 whole entry): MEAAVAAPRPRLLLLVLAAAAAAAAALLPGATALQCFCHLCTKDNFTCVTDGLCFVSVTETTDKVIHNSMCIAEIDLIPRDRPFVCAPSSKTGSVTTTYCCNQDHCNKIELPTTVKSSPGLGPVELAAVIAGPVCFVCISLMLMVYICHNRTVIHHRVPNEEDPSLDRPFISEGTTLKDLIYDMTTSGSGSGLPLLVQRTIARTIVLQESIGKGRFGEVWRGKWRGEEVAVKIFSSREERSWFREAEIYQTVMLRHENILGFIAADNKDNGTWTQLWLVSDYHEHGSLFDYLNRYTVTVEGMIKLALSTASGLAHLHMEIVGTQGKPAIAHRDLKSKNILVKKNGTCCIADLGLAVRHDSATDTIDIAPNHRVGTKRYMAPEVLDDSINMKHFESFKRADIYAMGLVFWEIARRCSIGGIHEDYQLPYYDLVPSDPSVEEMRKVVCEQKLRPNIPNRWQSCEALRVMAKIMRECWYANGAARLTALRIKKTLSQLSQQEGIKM
T7 sequence (O75582 whole entry): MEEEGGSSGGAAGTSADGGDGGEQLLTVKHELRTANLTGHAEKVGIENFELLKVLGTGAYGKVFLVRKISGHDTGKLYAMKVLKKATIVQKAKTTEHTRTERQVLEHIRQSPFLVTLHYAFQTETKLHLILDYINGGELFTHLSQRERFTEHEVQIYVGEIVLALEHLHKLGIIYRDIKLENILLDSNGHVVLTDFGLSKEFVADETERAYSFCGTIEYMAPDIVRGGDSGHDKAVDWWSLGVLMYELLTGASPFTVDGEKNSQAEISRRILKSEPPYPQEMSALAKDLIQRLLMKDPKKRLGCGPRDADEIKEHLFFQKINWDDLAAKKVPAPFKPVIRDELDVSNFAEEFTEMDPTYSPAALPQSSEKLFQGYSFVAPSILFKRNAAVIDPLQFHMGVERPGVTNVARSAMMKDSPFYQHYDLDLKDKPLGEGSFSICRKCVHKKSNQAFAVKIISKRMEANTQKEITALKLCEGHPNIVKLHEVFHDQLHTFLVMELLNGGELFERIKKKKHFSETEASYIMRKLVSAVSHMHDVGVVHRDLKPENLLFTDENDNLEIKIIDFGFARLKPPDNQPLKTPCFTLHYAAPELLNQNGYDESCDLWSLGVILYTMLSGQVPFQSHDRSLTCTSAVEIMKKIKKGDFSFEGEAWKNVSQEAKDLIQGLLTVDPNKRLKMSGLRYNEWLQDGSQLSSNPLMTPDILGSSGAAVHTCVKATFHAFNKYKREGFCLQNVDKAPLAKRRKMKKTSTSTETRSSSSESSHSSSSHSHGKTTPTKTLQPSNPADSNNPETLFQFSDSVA

For `COc1ccc(-c2cnccc2-c2cnc(NC(=O)C(C)C)s2)c(C(F)(F)F)c1` [CRT0105446, N-{5-[3-(4-Methoxy-2-trifluoromethyl-phenyl)-pyridin-4-yl]-hiazol-2-yl}-isobutyramide], the remaining binding at 10 µM stood at 89% in assay [1]; 0.9% in assay [2]; 96% in [3]; 0.4% in assay [4]; 100% in [5]; 88% in [6]. For the same compound, the remaining binding at 10 µM in [7] was determined as 100%; in [8], 100%; in assay [9], 100%; in [10], 100%; in [11], 100%; in assay [12] it was 68%. The remaining binding at 10 µM in assay [13] is 82%; in [14], 93%; in [15], 92%; in [16], 90%; in assay [17], 98%; in assay [18], 89%. In addition, the remaining binding at 10 µM stood at 37% in [19]; 100% in assay [20]; 100% in [21]; 99% in [22]; 99% in assay [23].

On to `Cc1ccc(-c2cnccc2-c2cnc(Nc3ccc(O)cc3)s2)c(Cl)c1` [CRT0105950, 4-{5-[3-(2-Chloro-4-methyl-phenyl)-pyridin-4-yl]-thiazol-2-ylamino}-phenol], for which the remaining binding at 10 µM in assay [1] worked out at 67%; in [2], 0.2%; in assay [3], 74%; in [4] it was 12%; in assay [5], 96%; in assay [6], 88%. Also, the remaining binding at 10 µM in [7] is 80%; in [8], 51%; in assay [9], 100%; in assay [10], 26%; in [11] it was 20%; in assay [12], 84%. In addition, the remaining binding at 10 µM in [13] was 1.8%; in [14], 78%; in assay [15], 52%; in assay [16], 76%; in assay [17] it was 11%; in assay [18], 50%. Besides, the remaining binding at 10 µM in assay [19] was found to be 0.1%; in assay [20], 100%; in assay [21], 100%; in assay [22], 74%; in [23], 66%.
